{
  "source": "patent US11034698B2",
  "about": "“Pyrazolo[ 1,5a]pyrimidine derivatives as IRAK4 modulators” (priority 2017, dated 2021)",
  "data": [
    {"target": "human IRAK4 (Homo sapiens (Human), UniProt Q9NWZ3)", "sequence (Q9NWZ3 whole entry)": "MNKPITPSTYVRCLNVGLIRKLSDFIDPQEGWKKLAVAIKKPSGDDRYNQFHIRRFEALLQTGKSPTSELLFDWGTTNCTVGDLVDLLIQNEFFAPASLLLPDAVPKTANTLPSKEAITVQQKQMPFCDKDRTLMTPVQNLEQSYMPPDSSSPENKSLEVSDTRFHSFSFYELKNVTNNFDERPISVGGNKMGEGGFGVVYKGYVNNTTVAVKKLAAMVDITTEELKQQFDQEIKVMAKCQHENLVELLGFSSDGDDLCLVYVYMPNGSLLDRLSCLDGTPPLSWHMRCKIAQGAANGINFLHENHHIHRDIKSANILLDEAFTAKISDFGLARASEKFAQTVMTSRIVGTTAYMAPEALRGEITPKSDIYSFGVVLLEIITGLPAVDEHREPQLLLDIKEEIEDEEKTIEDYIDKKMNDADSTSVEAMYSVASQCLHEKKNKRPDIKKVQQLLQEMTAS", "test": "IRAK4 kinase inhibition, Transcreener fluorescence polarization (ADP)", "format": "biochemical", "conditions": "recombinant full-length His6-IRAK4 1.25 nM; 125 uM ATP; 125 uM peptide; 90 min; ATP Km 642 uM; read-out: IRAK4 Ki", "protocol": "Compounds were assayed for inhibition of human IRAK4 and IRAK1 catalytic activity using recombinant enzyme produced from insect cells. Full-length IRAK4 protein, carrying an N-terminal His6-Tag, was obtained from Life Technologies (Carlsbad, Calif., USA). The IRAK1 construct was produced internally and was comprised of IRAK1 residues Arg194 to Ser712, preceded by an NH2-terminal His6 tag and the coding sequence for glutathione-S-transferase.\nKinase activities were assayed using the Transcreener-Fluorecescence polarization platform (BelBrook Labs, Madison, Wis., USA) that measures amounts of the reaction product, ADP.", "units": {"Ki": "nM"}, "values": [
      {"smiles": "CC(C)(O)[C@H](F)CN1Cc2cc(NC(=O)c3cnn4cccnc34)c(OC3CCCC3)cc2C1=O", "note": "[Example 80, (R)-N-(6-(Cyclopentyloxy)-2-(2-fluoro-3-hydroxy-3-methylbutyl)-1-oxoisoindolin-5-yl)pyrazolo[1,5-a]pyrimidine-3-carboxamide]", "Ki": 0.97},
      {"smiles": "Cc1cnc2c(C(=O)Nc3cc4c(cc3OC(C)C)C(=O)N(C[C@@H](F)C(C)(C)O)C4)cnn2c1", "note": "[Example 81, (R)-N-(2-(2-Fluoro-3-hydroxy-3-methylbutyl)-6-isopropoxy-1-oxoisoindolin-5-yl)-6-methylpyrazolo[1,5-a]pyrimidine-3-carboxamide]", "Ki": 0.42},
      {"smiles": "CCOc1cc2c(cc1NC(=O)c1cnn3cccnc13)CN(C[C@@H](F)C(C)(C)O)C2=O", "note": "[Example 82, (R)-N-(6-Ethoxy-2-(2-fluoro-3-hydroxy-3-methylbutyl)-1-oxoisoindolin-5-yl)pyrazolo[1,5-a]pyrimidine-3-carboxamide]", "Ki": 0.37},
      {"smiles": "CC(C)(O)[C@H](F)CN1Cc2cc(NC(=O)c3cnn4cccnc34)c(O[C@@H]3CCOC3)cc2C1=O", "note": "[Example 83, N-(2-((R)-2-Fluoro-3-hydroxy-3-methylbutyl)-1-oxo-6-(((R)-tetrahydrofuran-3-yl)oxy)isoindolin-5-yl)pyrazolo[1,5-a]pyrimidine-3-carboxamide]", "Ki": 0.71},
      {"smiles": "CC(C)(O)[C@H](F)CN1Cc2cc(NC(=O)c3cnn4cccnc34)c(OC3CCOCC3)cc2C1=O", "note": "[Example 85, (R)-N-(2-(2-Fluoro-3-hydroxy-3-methylbutyl)-1-oxo-6-((tetrahydro-2H-pyran-4-yl)oxy)isoindolin-5-yl)pyrazolo[1,5-a]pyrimidine-3-carboxamide]", "Ki": 1.8},
      {"smiles": "COc1cc2c(cc1NC(=O)c1cnn3cccnc13)CN(C[C@@H](F)C(C)(C)O)C2=O", "note": "[Example 86, (R)-N-(2-(2-Fluoro-3-hydroxy-3-methylbutyl)-6-methoxy-1-oxoisoindolin-5-yl)pyrazolo[1,5-a]pyrimidine-3-carboxamide]", "Ki": 1.3},
      {"smiles": "CC(C)(O)[C@H](F)CN1Cc2cc(NC(=O)c3cnn4cccnc34)c(OC3COC3)cc2C1=O", "note": "[Example 87, (R)-N-(2-(2-Fluoro-3-hydroxy-3-methylbutyl)-6-(oxetan-3-yloxy)-1-oxoisoindolin-5-yl)pyrazolo[1,5-a]pyrimidine-3-carboxamide]", "Ki": 0.59},
      {"smiles": "CC(C)(O)[C@H](F)CN1Cc2cc(NC(=O)c3cnn4cccnc34)c(OC(F)F)cc2C1=O", "note": "[Example 88, (R)-N-(6-(Difluoromethoxy)-2-(2-fluoro-3-hydroxy-3-methylbutyl)-1-oxoisoindolin-5-yl)pyrazolo[1,5-a]pyrimidine-3-carboxamide]", "Ki": 0.5},
      {"smiles": "Cn1cc(Oc2cc3c(cc2NC(=O)c2cnn4cccnc24)CN(C[C@@H](F)C(C)(C)O)C3=O)cn1", "note": "[Example 89, (R)-N-(2-(2-Fluoro-3-hydroxy-3-methylbutyl)-6-((1-methyl-1H-pyrazol-4-yl)oxy)-1-oxoisoindolin-5-yl)pyrazolo[1,5-a]pyrimidine-3-carboxamide]", "Ki": 1.3},
      {"smiles": "CC(C)(C)Oc1cc2c(cc1NC(=O)c1cnn3cccnc13)CN(C[C@@H](F)C(C)(C)O)C2=O", "note": "[Example 90, (R)-N-(6-(tert-Butoxy)-2-(2-fluoro-3-hydroxy-3-methylbutyl)-1-oxoisoindolin-5-yl)pyrazolo[1,5-a]pyrimidine-3-carboxamide]", "Ki": 0.61},
      {"smiles": "CNc1cc2c(cc1NC(=O)c1cnn3cccnc13)CN(C[C@@H](F)C(C)(C)O)C2=O", "note": "[Example 91, N-[2-[(2R)-2-Fluoro-3-hydroxy-3-methyl-butyl]-6-(methylamino)-1-oxo-isoindolin-5-yl]pyrazolo[1,5-a]pyrimidine-3-carboxamide]", "Ki": 280},
      {"smiles": "O=C(Nc1cc2c(cc1N1CCOCC1)C(=O)N(CC1CCOCC1)C2)c1cnn2cccnc12", "note": "[Example 92, N-[6-Morpholino-1-oxo-2-(tetrahydropyran-4-ylmethyl)isoindolin-5-yl]pyrazolo[1,5-a]pyrimidine-3-carboxamide]", "Ki": 3.7},
      {"smiles": "O=C(Nc1cc2c(cc1N1CCOCC1)C(=O)N(CCN1CCCC1)C2)c1cnn2cccnc12", "note": "[Example 93, N-[6-Morpholino-1-oxo-2-(2-pyrrolidin-1-ylethyl)isoindolin-5-yl]pyrazolo[1,5-a]pyrimidine-3-carboxamide]", "Ki": 22},
      {"smiles": "O=C(Nc1cc2c(cc1N1CCOCC1)C(=O)N(C1CC3(COC3)C1)C2)c1cnn2cccnc12", "note": "[Example 94, N-[6-Morpholino-2-(2-oxaspiro[3.3]heptan-6-yl)-1-oxo-isoindolin-5-yl]pyrazolo[1,5-a]pyrimidine-3-carboxamide]", "Ki": 4.9},
      {"smiles": "CC(C)N1Cc2cc(NC(=O)c3cnn4cccnc34)c(N(C)C)cc2C1=O", "note": "[Example 95, N-[6-(Dimethylamino)-2-isopropyl-1-oxo-isoindolin-5-yl]pyrazolo[1,5-a]pyrimidine-3-carboxamide]", "Ki": 1.9},
      {"smiles": "CC(C)(O)[C@H](F)CN1Cc2cc(NC(=O)c3cnn4cccnc34)c(N3CCC(CC(F)F)CC3)cc2C1=O", "note": "[Example 96, (R)-N-(6-(4-(2,2-Difluoroethyl)piperidin-1-yl)-2-(2-fluoro-3-hydroxy-3-methylbutyl)-1-oxoisoindolin-5-yl)pyrazolo[1,5-a]pyrimidine-3-carboxamide]", "Ki": 1.5},
      {"smiles": "CC(C)N1Cc2cc(NC(=O)c3cnn4cccnc34)c(C3CC3)cc2C1=O", "note": "[Example 97, N-(6-Cyclopropyl-2-isopropyl-1-oxoisoindolin-5-yl)pyrazolo[1,5-a]pyrimidine-3-carboxamide]", "Ki": 5.2},
      {"smiles": "CC(C)(O)[C@H](F)CN1Cc2cc(NC(=O)c3cnn4cccnc34)c(C#N)cc2C1=O", "note": "[Example 98, (R)—N-(6-Cyano-2-(2-fluoro-3-hydroxy-3-methylbutyl)-1-oxoisoindolin-5-yl)pyrazolo[1,5-a]pyrimidine-3-carboxamide]", "Ki": 8.5},
      {"smiles": "CC(C)(O)[C@H](F)CN1Cc2cc(NC(=O)c3cnn4cccnc34)c(N3CCN4CCC[C@@H]4C3)cc2C1=O", "note": "[Example 100, N-(2-((R)-2-Fluoro-3-hydroxy-3-methylbutyl)-6-((R)-hexahydropyrrolo[1,2-a]pyrazin-2(1H)-yl)-1-oxoisoindolin-5-yl)pyrazolo[1,5-a]pyrimidine-3-carboxamide]", "Ki": 1.8},
      {"smiles": "CO[C@@H]1C[C@H]2CN(c3cc4c(cc3NC(=O)c3cnn5cccnc35)CN(C[C@@H](F)C(C)(C)O)C4=O)CCN2C1", "note": "[Example 101, N-(2-((R)-2-Fluoro-3-hydroxy-3-methylbutyl)-6-((7R,8aS)-7-methoxyhexahydropyrrolo[1,2-a]pyrazin-2(1H)-yl)-1-oxoisoindolin-5-yl)pyrazolo[1,5-a]pyrimidine-3-carboxamide]", "Ki": 12},
      {"smiles": "CC(C)(O)[C@H](F)CN1Cc2cc(NC(=O)c3cnn4ccc(Cl)nc34)c(N3CCOCC3)cc2C1=O", "note": "[Example 102, (R)-5-Chloro-N-(2-(2-fluoro-3-hydroxy-3-methylbutyl)-6-morpholino-1-oxoisoindolin-5-yl)pyrazolo[1,5-a]pyrimidine-3-carboxamide]", "Ki": 6.5},
      {"smiles": "CCc1oncc1CN1CCN(c2cc3c(cc2NC(=O)c2cnn4cccnc24)CN(C[C@@H](F)C(C)(C)O)C3=O)CC1", "note": "[Example 103, (R)-N-(6-(4-((5-Ethylisoxazol-4-yl)methyl)piperazin-1-yl)-2-(2-fluoro-3-hydroxy-3-methylbutyl)-1-oxoisoindolin-5-yl)pyrazolo[1,5-a]pyrimidine-3-carboxamide]", "Ki": 5.4},
      {"smiles": "CCc1nocc1CN1CCN(c2cc3c(cc2NC(=O)c2cnn4cccnc24)CN(C[C@@H](F)C(C)(C)O)C3=O)CC1", "note": "[Example 104, (R)-N-(6-(4-((3-Ethylisoxazol-4-yl)methyl)piperazin-1-yl)-2-(2-fluoro-3-hydroxy-3-methylbutyl)-1-oxoisoindolin-5-yl)pyrazolo[1,5-a]pyrimidine-3-carboxamide]", "Ki": 5},
      {"smiles": "CC(C)(O)[C@H](F)CN1Cc2cc(NC(=O)c3cnn4cccnc34)c(N3CCN(C4COC4)CC3)cc2C1=O", "note": "[Example 105, (R)-N-(2-(2-Fluoro-3-hydroxy-3-methylbutyl)-6-(4-(oxetan-3-yl)piperazin-1-yl)-1-oxoisoindolin-5-yl)pyrazolo[1,5-a]pyrimidine-3-carboxamide]", "Ki": 3.4},
      {"smiles": "CC(C)(O)[C@H](F)CN1Cc2cc(NC(=O)c3cnn4cccnc34)c(N3CCN(CCn4ccnc4)CC3)cc2C1=O", "note": "[Example 106, (R)-N-(6-(4-(2-(1H-Imidazol-1-yl)ethyl)piperazin-1-yl)-2-(2-fluoro-3-hydroxy-3-methylbutyl)-1-oxoisoindolin-5-yl)pyrazolo[1,5-a]pyrimidine-3-carboxamide]", "Ki": 2.1},
      {"smiles": "CO[C@@H]1C[C@@H]2CN(c3cc4c(cc3NC(=O)c3cnn5cccnc35)CN(C[C@@H](F)C(C)(C)O)C4=O)CCN2C1", "note": "[Example 107, N-(2-((R)-2-Fluoro-3-hydroxy-3-methylbutyl)-6-((7R,8aR)-7-methoxyhexahydropyrrolo[1,2-a]pyrazin-2(1H)-yl)-1-oxoisoindolin-5-yl)pyrazolo[1,5-a]pyrimidine-3-carboxamide]", "Ki": 6.5},
      {"smiles": "CO[C@H]1C[C@@H]2CN(c3cc4c(cc3NC(=O)c3cnn5cccnc35)CN(C[C@@H](F)C(C)(C)O)C4=O)CCN2C1", "note": "[Example 108, N-(2-((R)-2-Fluoro-3-hydroxy-3-methylbutyl)-6-((7S,8aR)-7-methoxyhexahydropyrrolo[1,2-a]pyrazin-2(1H)-yl)-1-oxoisoindolin-5-yl)pyrazolo[1,5-a]pyrimidine-3-carboxamide]", "Ki": 1.3},
      {"smiles": "CC(C)(O)[C@H](F)CN1Cc2cc(NC(=O)c3cnn4cccnc34)c(N3CCN(CC(F)(F)F)CC3)cc2C1=O", "note": "[Example 109, (R)-N-(2-(2-Fluoro-3-hydroxy-3-methylbutyl)-1-oxo-6-(4-(2,2,2-trifluoroethyl)piperazin-1-yl)isoindolin-5-yl)pyrazolo[1,5-a]pyrimidine-3-carboxamide]", "Ki": 2.6}
    ]}
  ]
}
